This note sets out measurements from US8729089B2 (Gilead Sciences, Inc., priority 2006, dated 2014).

The structures appear in SMILES notation. A value given as a limit tells only on which side of the number the result lay.

As usually defined, the EC50 is the concentration that produces a half-maximal response. A higher EC50 goes with a need for much substance. A word on the CC50: it is the concentration that lowers cell viability or growth by half.

In series [1] the test system is HCV replicon in human hepatoma Huh-7 cell line. Description: Anti-HCV replicon assay (EC50, luciferase). To be noted: Hepatitis C virus, Huh-7, 72 h. It counts as cell-based. Put shortly:
(§1)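 Huh-7 cells carrying an HCV replicon (6000/well) exposed to 3-fold serial compound dilutions for 3 days at 37 °C, final DMSO 0.5% where used. EC50 read as replicon luciferase luminescence after cell lysis; CC50 from CellTiter-Glo luminescence after 10 min at room temperature.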

Series [2] is described as follows: CC50 assay (CellTiter-Glo) in Huh-7 HCV replicon cells. It counts as cell-based, human. To be noted: human, 3 days incubation, CellTiter-Glo readout. Summed up:
as §1

As to `CCOc1nc(NCc2ccc(S(N)(=O)=O)cc2)nc2ccc(-c3ccc(C(N)=O)cc3)nc12` [Example 138, 4-{[4-Ethoxy-6-(4-carbamoylphenyl)-pyrido[3,2-d]pyrimidin-2-ylamino]-methyl}-benzenesulfonamide], the EC50 in series [1] is below 0.1 µM. Besides, the CC50 at 3 days in series [2] lay within 5 to 25 µM.

In series [1], `Fc1ccc(-c2ccc3nc(NCc4ccc(N5CCCC5)cc4)nc(NCC(F)(F)F)c3n2)cc1` [Example 239, 6-(4-Fluoro-phenyl)-N2-(4-pyrrolidin-1-yl-benzyl)-N4-(2,2,2-trifluoro-ethyl)-pyrido[3,2-d]pyrimidine-2,4-diamine] displayed a concentration giving a half-maximal response (EC50) below 0.1 µM. The same compound registered a half-maximal cytotoxic concentration (CC50) at 3 days in series [2] of 5 to 25 µM.

In series [1], `CS(=O)(=O)CCNc1nc(NCc2ccc(S(N)(=O)=O)cc2)nc2ccc(-c3ccc(F)c(Cl)c3)nc12` [Example 150, 4-{[4-(2-Methanesulfonylethyl)-amino-6-(3-chloro-4-fluorophenyl)-pyrido[3,2-d]pyrimidin-2-ylamino]-methyl}-benzenesulfonamide] yielded an EC50 below 0.1 µM. This compound also gave a 50% cytotoxic concentration (CC50) at 3 days in series [2] below 5 µM.

On to `CS(=O)(=O)CCNc1nc(NCc2ccc(F)cc2)nc2ccc(-c3ccc(F)cc3)nc12` [Example 299, N2-(4-Fluoro-benzyl)-6-(4-fluoro-phenyl)-N4-(2-methanesulfonyl-ethyl)-pyrido[3,2-d]pyrimidine-2,4-diamine], for which the EC50 in series [1] was below 0.1 µM. This compound showed a cytotoxic concentration (CC50) at 3 days in series [2] of 5 to 25 µM.

Turning to `COCCNc1nc(NC(C)C)c2nc(-c3ccc(F)cc3)ccc2n1` [Example 58, 6-(4-Fluoro-phenyl)-N4-isopropyl-N2-(2-methoxy-ethyl)-pyrido[3,2-d]pyrimidine-2,4-diamine], in series [1], the EC50 fell in the range of 0.25 to 2 µM. Besides, the cytotoxic concentration (CC50) at 3 days in series [2] is below 5 µM.

In series [1], `CCOc1nc(NCc2ccc(CS(=O)(=O)NC)cc2)nc2ccc(-c3ccc(F)cc3)nc12` [Example 269, C-(4-{[4-Ethoxy-6-(4-fluoro-phenyl)-pyrido[3,2-d]pyrimidin-2-ylamino]-methyl}-phenyl)-N-methyl-methanesulfonamide] yielded a concentration giving a half-maximal response (EC50) below 0.1 µM. Moreover, the CC50 at 3 days in series [2] was in the range of 5 to 25 µM.

`Fc1ccc(CNc2nc(O[C@H]3CCOC3)c3nc(-c4ccc(F)cc4)ccc3n2)cc1` [Example 23, (4-Fluoro-benzyl)-[6-(4-fluoro-phenyl)-4-(tetrahydro-furan-3-yloxy)-pyrido[3,2-d]pyrimidin-2-yl]amine] showed a half-maximal effective concentration (EC50) in series [1] below 0.1 µM. Further, in series [2], the CC50 at 3 days lay within 5 to 25 µM.

In series [1], `Fc1ccc(CNc2nc(NCC(F)(F)F)c3nc(-c4ccc(F)cc4)ccc3n2)cc1` [Example 33, N2-(4-Fluoro-benzyl)-6-(4-fluoro-phenyl)-N4-(2,2,2-trifluoro-ethyl)-pyrido[3,2-d]pyrimidine-2,4-diamine] showed an EC50 below 0.1 µM. This compound displayed a CC50 at 3 days in series [2] of 5 to 25 µM.

The compound `NS(=O)(=O)c1ccc(CNc2nc(NCC(F)(F)F)c3nc(-c4cccc(S(N)(=O)=O)c4)ccc3n2)cc1` [Example 232, 3-[2-(4-sulfamoyl-benzylamino)-4-(2,2,2-trifluoro-ethylamino)-pyrido[3,2-d]pyrimidin-6-yl]-benzenesulfonamide] yielded an EC50 in series [1] below 0.1 µM. The compound also came in with a CC50 at 3 days in series [2] above 25 µM.

`CCOc1nc(NCc2ccc(F)cc2)nc2ccc(-c3ccc(NC(=O)[C@@H]4CCCN4)cc3)nc12` [Example 89, Pyrrolidine-2-carboxylic acid {4-[4-ethoxy-2-(4-fluoro-benzylamino)-pyrido[3,2-d]pyrimidin-6-yl]-phenyl}-amide]: the EC50 in series [1] is below 0.1 µM. This compound also had a cytotoxic concentration (CC50) at 3 days in series [2] below 5 µM.

Compound `CC(C)Nc1nc(NCC(F)(F)F)nc2ccc(-c3ccc(F)cc3)nc12` [Example 55, 6-(4-Fluoro-phenyl)-N4-isopropyl-N2-(2,2,2-trifluoro-ethyl)-pyrido[3,2-d]pyrimidine-2,4-diamine] had an EC50 in series [1] below 0.1 µM. The compound also had a CC50 at 3 days in series [2] of 5 to 25 µM.

`NS(=O)(=O)c1ccc(CNc2nc(NCC(F)(F)F)c3nc(-c4ccc(N5CCCC5=O)cc4)ccc3n2)cc1` [Example 191, 4-{[6-[4-(2-Oxo-pyrrolidin-1-yl)-phenyl]-4-(2,2,2-trifluoro-ethylamino)-pyrido[3,2-d]pyrimidin-2-ylamino]-methyl}-benzenesulfonamide]: in series [1], the EC50 was below 0.1 µM. Also, the cytotoxic concentration (CC50) at 3 days in series [2] was below 5 µM.

The compound `CCOc1nc(NCc2ccc(F)cc2)nc2ccc(-c3ccc(F)nc3)nc12` [Example 87, [4-Ethoxy-6-(6-fluoro-pyridin-3-yl)-pyrido[3,2-d]pyrimidin-2-yl]-(4-fluoro-benzyl)-amine] yielded an EC50 in series [1] below 0.1 µM. In series [2], this compound returned a CC50 at 3 days below 5 µM.

In series [1], `CCCc1nc(NCc2ccc(F)cc2)nc2ccc(-c3ccc(NC(=O)C(C)(C)N)cc3)nc12` [Example 295, 2-Amino-N-{4-[2-(4-fluoro-benzylamino)-4-propyl-pyrido[3,2-d]pyrimidin-6-yl]-phenyl}-2-methyl-propionamide] returned an EC50 below 0.1 µM. In series [2], this compound came in with a CC50 at 3 days above 25 µM.

On to `CCOP(=O)(CCNc1nc(NCC(F)(F)F)c2nc(-c3ccc(F)cc3)ccc2n1)OCC` [Example 256, {2-[6-(4-Fluoro-phenyl)-4-(2,2,2-trifluoro-ethylamino)-pyrido[3,2-d]pyrimidin-2-ylamino]-ethyl}-phosphonic acid diethyl ester], for which, in series [1], the EC50 is below 0.1 µM. Besides, the CC50 at 3 days in series [2] lay in the range of 5 to 25 µM.

The compound `CN(C)C(=O)c1ccc(CNc2nc(NCC(F)(F)F)c3nc(-c4ccc(F)cc4)ccc3n2)cc1` [Example 242, 4-{[6-(4-Fluoro-phenyl)-4-(2,2,2-trifluoro-ethylamino)-pyrido[3,2-d]pyrimidin-2-ylamino]-methyl}-N,N-dimethyl-benzamide] gave a concentration giving a half-maximal response (EC50) in series [1] below 0.1 µM. This compound also registered a CC50 at 3 days in series [2] above 25 µM.

`CS(=O)(=O)Nc1cc(-c2ccc3nc(NCc4ccc(S(N)(=O)=O)cc4)nc(NCC(F)(F)F)c3n2)ccc1F` [Example 230, 4-{[6-(4-Fluoro-3-methanesulfonylamino-phenyl)-4-(2,2,2-trifluoro-ethylamino)-pyrido[3,2-d]pyrimidin-2-ylamino]-methyl}-benzenesulfonamide] came in with a half-maximal effective concentration (EC50) in series [1] below 0.1 µM. The compound further showed a half-maximal cytotoxic concentration (CC50) at 3 days in series [2] of 5 to 25 µM.

In turn, `NS(=O)(=O)c1ccc(CNc2nc(NC3CC3)c3nc(-c4ccc(F)c(NS(=O)(=O)C5CC5)c4)ccc3n2)cc1` [Example 184, 4-{[6-(3-Cyclopropanesulfonylamino-4-fluoro-phenyl)-4-cyclopropylamino-pyrido[3,2-d]pyrimidin-2-ylamino]-methyl}-benzenesulfonamide] displayed an EC50 in series [1] below 0.1 µM. For the same compound, in series [2], the CC50 at 3 days is below 5 µM.

Take `CCOc1nc(NCc2ccc(F)cc2)nc2ccc(-c3ccc(NC(=O)CN)cc3)nc12` [Example 70, 2-Amino-N-{4-[4-ethoxy-2-(4-fluoro-benzylamino)-pyrido[3,2-d]pyrimidin-6-yl]-phenyl}-acetamide]: in series [1], the EC50 was below 0.1 µM. Further, in series [2], the CC50 at 3 days was below 5 µM.

In series [1], `CC(C)(C)OC(=O)NC1CCN(S(=O)(=O)c2cc(-c3ccc4nc(NCc5ccc(S(N)(=O)=O)cc5)nc(NCC(F)(F)F)c4n3)ccc2Cl)CC1` [Example 194, (1-{2-Chloro-5-[2-(4-sulfamoyl-benzylamino)-4-(2,2,2-trifluoro-ethylamino)-pyrido[3,2-d]pyrimidin-6-yl]-benzenesulfonyl}-piperidin-4-yl)-carbamic acid tert-butyl ester] had an EC50 below 0.1 µM. Moreover, the CC50 at 3 days in series [2] was below 5 µM.

`C[C@H](N)C(=O)Nc1ccc(-c2ccc3nc(NCc4ccc(S(N)(=O)=O)cc4)nc(NCC(F)(F)F)c3n2)cc1Cl` [Example 207, 2-Amino-N-{2-chloro-4-[2-(4-sulfamoyl-benzylamino)-4-(2,2,2-trifluoro-ethylamino)-pyrido[3,2-d]pyrimidin-6-yl]-phenyl}-propionamide] yielded an EC50 in series [1] below 0.1 µM. The compound also registered a CC50 at 3 days in series [2] below 5 µM.

For the compound `CN(C)c1nc(NCc2ccc(F)cc2)nc2ccc(-c3ccc(F)cc3)nc12` [Example 51, 6-(4-Fluoro-phenyl)-N4-(N,N-dimethyl)-N2-(4-fluoro-benzyl)-pyrido[3,2-d]pyrimidine-2,4-diamine], the concentration giving a half-maximal response (EC50) in series [1] was 0.25 to 2 µM. The compound also came in with a CC50 at 3 days in series [2] above 25 µM.

`Fc1ccc(-c2ccc3nc(NCCN4CCOCC4)nc(NCC(F)(F)F)c3n2)cc1` [Example 258, 6-(4-Fluoro-phenyl)-N2-(2-morpholin-4-yl-ethyl)-N4-(2,2,2-trifluoro-ethyl)-pyrido[3,2-d]pyrimidine-2,4-diamine] registered an EC50 in series [1] below 0.1 µM. For the same compound, the CC50 at 3 days in series [2] was below 5 µM.

The compound `NS(=O)(=O)c1ccc(CNc2nc(C3CC3)c3nc(-c4ccc(C(=O)NC5CC5)cc4)ccc3n2)cc1` [Example 293, N-Cyclopropyl-4-[4-cyclopropyl-2-(4-sulfamoyl-benzylamino)-pyrido[3,2-d]pyrimidin-6-yl]-benzamide] displayed a concentration giving a half-maximal response (EC50) in series [1] below 0.1 µM. The same compound gave a CC50 at 3 days in series [2] below 5 µM.

In series [1], `Fc1ccc(-c2ccc3nc(NCc4ccccn4)nc(NCC(F)(F)F)c3n2)cc1` [Example 243, 6-(4-Fluoro-phenyl)-N2-pyridin-2-ylmethyl-N4-(2,2,2-trifluoro-ethyl)-pyrido[3,2-d]pyrimidine-2,4-diamine] gave a concentration for a half-maximal effect (EC50) below 0.1 µM. The compound also came in with a CC50 at 3 days in series [2] of 5 to 25 µM.

In turn, `Nc1ncc(-c2ccc3nc(NCc4ccc(S(N)(=O)=O)cc4)nc(NCC(F)(F)F)c3n2)cn1` [Example 174, 4-{[6-(2-Amino-pyrimidin-5-yl)-4-(2,2,2-trifluoro-ethylamino)-pyrido[3,2-d]pyrimidin-2-ylamino]-methyl}-benzenesulfonamide] showed an EC50 in series [1] below 0.1 µM. Further, the 50% cytotoxic concentration (CC50) at 3 days in series [2] is above 25 µM.

In turn, `NS(=O)(=O)c1ccc(CNc2nc(NCC(F)(F)F)c3nc(-c4ccc(F)cc4)ccc3n2)cc1` [Example 149, 4-{[4-(2,2,2-Trifluoroethyl)-amino-6-(4-fluorophenyl)-pyrido[3,2-d]pyrimidin-2-ylamino]-methyl}-benzenesulfonamide] showed an EC50 in series [1] below 0.1 µM. The CC50 at 3 days in series [2] is 5 to 25 µM.
